Patent US20260167656A1, “PHOSPHORAMIDATE COMPOUNDS AND USES THEREOF” (ALLORION THERAPEUTICS INC, priority 2022, published 2026)

Columns and labels:
[1] = tested on: non-small cell lung cancer cell line H460; experiment: In vitro human cancer cell line cytotoxicity (proliferation) assay in H460, CellTiter-Glo, 72 hours; type: cell-based; details: DMSO condition (no AKR1C3 inhibitor), read-out: CTG H460: Avg IC50 (nM) [Assay Condition: DMSO]
Summary of the method: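 H460 cells were seeded at 3×10^3 per well and grown 24 h at 37 °C, 5% CO2 before compound addition from 10 mM DMSO stocks. After 72 h further incubation, viability was measured by CellTiter-Glo, and IC50 values in nM were derived from the proliferation data.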

[2] = tested on: non-small cell lung cancer cell line H460; experiment: H460 proliferation assay in the presence of 3 uM ASP9521 (AKR1C3 specific inhibitor); type: cell-based, human; details: H460 cells, CellTiter-Glo, 72 hours, in the presence of 3 uM ASP9521 added 4 hours prior to compounds; read-out: CTG H460: Avg IC50 (nM) [Assay Condition: ASP9521]
Summary of the method: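 H460 cells pre-incubated 24 h, then exposed to compounds for 72 h at 37 °C, 5% CO2. Viability read by CellTiter-Glo. ASP9521 (3 uM, AKR1C3 inhibitor) added 4 h before compounds.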

[3] = Homo sapiens, NCI-H460, 72 h, H460 cells

Row | SMILES | IC50 ([1]; H460 cells) [nM] | IC50 [2] [nM] | IC50 [1, 3] [nM] | IC50 ([1]; Homo sapiens, NCI-H460, H460 cells) [nM]
1 | O=[N+]([O-])c1ccc2c(c1Oc1ccc(-c3ccncc3)cc1)CCC2OP(=O)(N1CC1)N1CC1 (stereo not drawn) [Example 62] | ≥ 100 | 6100 |  | 
2 | O=[N+]([O-])c1ccc2c(c1Oc1ccc(-c3ccncc3)cc1)CCC2OP(=O)(N1CC1)N1CC1 (stereo not drawn) [Example 63] | 10 to 50 | 7430 |  | 
3 | O=C(c1cccc(Oc2c([N+](=O)[O-])ccc3c2CCC3OP(=O)(N2CC2)N2CC2)c1)N1CC(F)(F)C1 (stereo not drawn) [Example 66] |  | 736 | < 10 | 
4 | O=C(c1cccc(Oc2c([N+](=O)[O-])ccc3c2CCC3OP(=O)(N2CC2)N2CC2)c1)N1CC(F)(F)C1 (stereo not drawn) [Example 67] | < 10 | 541 |  | 
5 | O=C1OCCN1c1cccc(Oc2c([N+](=O)[O-])ccc3c2CCC3OP(=O)(N2CC2)N2CC2)c1 (stereo not drawn) [Example 70] |  | 380 |  | < 10
6 | O=C1OCCN1c1cccc(Oc2c([N+](=O)[O-])ccc3c2CCC3OP(=O)(N2CC2)N2CC2)c1 (stereo not drawn) [Example 71] | < 10 | 31.9 |  | 
7 | O=C(NC1CC1)c1ccc(Oc2c([N+](=O)[O-])ccc3c2CCC3OP(=O)(N2CC2)N2CC2)cc1 (stereo not drawn) [Example 72] | 50 to 100 | 1390 |  | 
8 | O=C(NC1CC1)c1ccc(Oc2c([N+](=O)[O-])ccc3c2CCC3OP(=O)(N2CC2)N2CC2)cc1 (stereo not drawn) [Example 73] | < 10 | 943 |  | 
9 | Cn1c(-c2cccc(Oc3c([N+](=O)[O-])ccc4c3CCC4OP(=O)(N3CC3)N3CC3)c2)cccc1=O (stereo not drawn) [Example 74] | ≥ 100 | 1270 |  | 
10 | Cn1c(-c2cccc(Oc3c([N+](=O)[O-])ccc4c3CCC4OP(=O)(N3CC3)N3CC3)c2)cccc1=O (stereo not drawn) [Example 75] | 10 to 50 | 2720 |  | 
11 | O=[N+]([O-])c1ccc2c(c1Oc1ccc(-c3cnn(C4CC4)c3)cc1)CCC2OP(=O)(N1CC1)N1CC1 (stereo not drawn) [Example 78] | ≥ 100 | 1150 |  | 
12 | O=[N+]([O-])c1ccc2c(c1Oc1ccc(-c3cnn(C4CC4)c3)cc1)CCC2OP(=O)(N1CC1)N1CC1 (stereo not drawn) [Example 79] | 10 to 50 | 1610 |  | 
13 | O=c1ccccn1-c1cccc(Oc2c([N+](=O)[O-])ccc3c2CCC3OP(=O)(N2CC2)N2CC2)c1 (stereo not drawn) [Example 80] |  | 909 | < 10 | 
14 | O=c1ccccn1-c1cccc(Oc2c([N+](=O)[O-])ccc3c2CCC3OP(=O)(N2CC2)N2CC2)c1 (stereo not drawn) [Example 81] | < 10 | 829 |  | 
15 | O=[N+]([O-])c1ccc2c(c1Oc1cccc(-n3cc(F)cn3)c1)CCC2OP(=O)(N1CC1)N1CC1 (stereo not drawn) [Example 82] |  | 181 | < 10 | 
16 | O=[N+]([O-])c1ccc2c(c1Oc1cccc(-n3cc(F)cn3)c1)CCC2OP(=O)(N1CC1)N1CC1 (stereo not drawn) [Example 83] | < 10 | 1170 |  | 
17 | O=[N+]([O-])c1ccc2c(c1Oc1cccc(-c3ncccn3)c1)CCC2OP(=O)(N1CC1)N1CC1 (stereo not drawn) [Example 84] |  | 1020 | 10 to 50 | 
18 | O=[N+]([O-])c1ccc2c(c1Oc1cccc(-c3ncccn3)c1)CCC2OP(=O)(N1CC1)N1CC1 (stereo not drawn) [Example 85] | < 10 | 5280 |  | 
19 | O=[N+]([O-])c1ccc2c(c1Oc1cccc(-c3ncc(F)cn3)c1)CCC2OP(=O)(N1CC1)N1CC1 (stereo not drawn) [Example 86] |  | 1230 | 10 to 50 | 
20 | O=[N+]([O-])c1ccc2c(c1Oc1cccc(-c3ncc(F)cn3)c1)CCC2OP(=O)(N1CC1)N1CC1 (stereo not drawn) [Example 87] | 10 to 50 | 5890 |  | 
21 | Cc1nc(-c2cccc(Oc3c([N+](=O)[O-])ccc4c3CCC4OP(=O)(N3CC3)N3CC3)c2)no1 (stereo not drawn) [Example 88] | 50 to 100 | 3570 |  | 
22 | Cc1nc(-c2cccc(Oc3c([N+](=O)[O-])ccc4c3CCC4OP(=O)(N3CC3)N3CC3)c2)no1 (stereo not drawn) [Example 89] | 10 to 50 | 6150 |  | 
23 | O=[N+]([O-])c1ccc2c(c1Oc1cccc(-c3noc(C4CC4)n3)c1)CCC2OP(=O)(N1CC1)N1CC1 (stereo not drawn) [Example 90] |  | 9470 | ≥ 100 | 
24 | O=[N+]([O-])c1ccc2c(c1Oc1cccc(-c3noc(C4CC4)n3)c1)CCC2OP(=O)(N1CC1)N1CC1 (stereo not drawn) [Example 91] | ≥ 100 | > 10000 |  | 
25 | O=[N+]([O-])c1ccc2c(c1Oc1ccc(-c3ccc(F)cn3)c(F)c1)CCC2OP(=O)(N1CC1)N1CC1 (stereo not drawn) [Example 92] | < 10 | 1420 |  | 
26 | Cn1c(=O)n(C)c2cc(Oc3c([N+](=O)[O-])ccc4c3CCC4OP(=O)(N3CC3)N3CC3)ccc21 (stereo not drawn) [Example 93] | ≥ 100 | 878 |  | 
27 | Cn1c(=O)n(C)c2cc(Oc3c([N+](=O)[O-])ccc4c3CCC4OP(=O)(N3CC3)N3CC3)ccc21 (stereo not drawn) [Example 94] | 10 to 50 | 1450 |  | 
